The results in this text go back to ChEMBL document CHEMBL1151208, “Cytotoxic flavonoids and alpha-pyrones from Cryptocarya obovata” (J Nat Prod, 2004).

Activity calls are given as the source filed them. The rule behind the calls is not given here.

Broadly, the IC50 is the concentration that inhibits the measured activity by half. Low values mean higher potency, high ones lower potency.

This experiment has as its system KB. Briefly: Cytotoxicity against human KB cells. Type of experiment: functional, cell-based.

In the case of `CCOC(=O)CCC[C@@H]1C[C@H]2C[C@](/C=C/c3ccccc3)(Oc3cc4c(c(O)c32)C(=O)C[C@@H](c2ccccc2)O4)O1`, the outcome was inactive.

Regarding `CCOC(=O)CCC[C@@H]1C[C@H]2C[C@](/C=C/c3ccccc3)(Oc3cc4c(c(O)c32)C(=O)C[C@H](c2ccccc2)O4)O1`, the result was inactive.

As for `O=C1C=CC[C@H](C[C@@H]2C[C@H]3C[C@](/C=C/c4ccccc4)(Oc4c(C(=O)/C=C/c5ccccc5)c(O)cc(O)c43)O2)O1` [OBOCHALCOLACTONE], the IC50 came out at 5 µM. This lies in the single-digit micromolar range.

The molecule `O=C1C=C(/C=C/c2ccccc2)O[C@H](C[C@H]2CC=CC(=O)O2)C1` [OBOLACTONE] had an IC50 of 3 µM.
